In patent publication US20140088006A1, “Stem Cell Mobilization and Tissue Repair and Regeneration” (Wellstat Therapeutics Corporation, priority 2011, published 2014):
Values joined by “and” are separate entries in the source; they are usually repeats but may differ in a detail not shown here. Equal entries are not always repeated. No end group written: not given here.

Experiments:
peripheral blood cells = assay: FACS phenotype of peripheral blood cells after single subcutaneous injection; format: in vivo, C57Bl6 mice; conditions: for Phenotype Lin−/Sca-1+ / Phenotype Lin−/Sca-1−: mononuclear cells; for Phenotype CD19+ / Phenotype Gr-1 High / Phenotype Gr-1 Low: individual mice
Experimental: C57Bl6 male mice, from 8 weeks to 4 month of age, from Harlan were used. […] 20 μl of blood was removed from each tube for WBC counts;
200 μl of blood was used for FACS analysis of cells phenotypes: briefly 50 μl of blood was transferred to a 15 ml polypropylene tube containing 1 ml ACK lysis buffer and the tubes left at room temperature for 6 minutes. 50 μl of a 1:50 dilution of Fc block (Pharmingen 01241A) along with 2 ul of anti-CD19FITC (Pharmingen 09654A) and 2 μl of anti-Gr-1PE (Pharmingen 01215A) was added and the tubes left at room temperature for 30 minutes protected from light. The cells were washed with 3 ml FACS buffer, resuspended in 300 μl FACS buffer and kept on ice, protected from light until acquired on the FACSCalibur.
For flow cytometry analysis the blood was stained with antibodies and a phenotype determined by FACS as described before. In addition to the whole blood FACS phenotyping, Ficolled blood was also stained to monitor the Lin−/Sca+ phenotype. The cells were washed with 3 ml FACS buffer, resuspended in 300 μl FACS buffer and kept on ice, protected from light until acquired on the FACSCalibur

[1] = system: hematopoietic stem cells (HSC) and their hematopoietic progenitors (HPC); assay: CFU-GM / CFU-GEMM colony assay of peripheral blood mononuclear cells after single subcutaneous injection; format: in vivo, C57Bl6 mice
Experimental: C57Bl6 male mice, from 8 weeks to 4 month of age, from Harlan were used. Mice received subcutaneous injections of saline, Compound X (50 μg/kg) or Compound X (250 μg/kg). After 1 and 4 hours, mice were anesthetized and blood was collected through the orbital sinus with heparinized capillary tubes. 20 μl of blood was removed from each tube for WBC counts;
Remaining blood from each group was pooled and mononuclear cells were isolated by density gradient separation. To enumerate HSC and HPC in peripheral blood cells were washed, counted plated in semi-solid Methylcellulose MC3434 (Stem cell technology) at 100,000 per dish (5 dishes/group) and placed in CO2 incubator at 37° C. Colony-forming unit-granulocyte erythroid macrophage megakaryocyte (CFU-GEMM) and Colony-forming unit-granulocyte macrophage (CFU-GM) were detected under inverted microscope 7 and 10 days after.
In this experiment, C57Bl6 mice received subcutaneous injections of PBS, Compound X (250 μg/kg) or AMD3100 (5 mg/kg). After 1 hr blood was collected through the orbital sinus with heparinized capillary tubes. Blood from each group was pooled, counted and mononuclear cells were isolated by density gradient separation. Cells were washed, counted and plated at 100,000 per dish (5 dishes/group) for CFU-GEMM and CFU-GM colonies. CFU-GEMM colonies were scored on day 14, while CFU-GM colonies on day 7 after plating in MC3434 (Stem cell Technology).

[2] = system: full-thickness cutaneous wounds; assay: Excisional wound healing model in db/db mice; format: in vivo; conditions: i.v. 5 mg/kg daily for 4 days, Day 4
[3] = Glucose level in db/db mice treated for 5 weeks; format: in vivo; conditions: for Glucose level in peripheral blood (nonfasting): 5 mg/kg s.c./i.v. for 5 weeks, individual mice; for Glucose level in peripheral blood, group mean: 5 mg/kg, high values set to 600 mg/dL
Experimental: Homozygous Leptin receptor-deficient diabetic db/db male mice—BKS.Cg-Dock7m+/+Leprdb/J (Jackson Laboratories, stock #000642) become obese at 3-4 weeks of age. Elevation of plasma insulin usually occurs at 10-14 days and elevation of blood glucose at 6-8 weeks of age. We examined the effects of Compound X on the onset of hyperglycemia in db/db mice. Continuous Compound X treatments were performed during 5 weeks.
At day 0, homozygous 7-week-old female db/db mice were divided into 2 experimental groups (n=10); both groups received subcutaneous injections for 5 consecutive days: Group 1 received 0.9% saline and group 2 received 5 mg/kg Compound X. The following week mice received intravenous injections for 4 consecutive days. The next two weeks mice received subcutaneous injections 3 times per week and the last week of treatment was given intravenously 3 times per week.
Nonfasting blood glucose levels were measured weekly from tail bleeds with a handheld glucometer. Animal body weights were taken throughout the course of the study.
At the end of experiment, serum from blood was obtained from the retro-orbital sinus after an overnight fast.

[4] = s.c. 250 μg/kg, 1 hour, individual dishes

FPHFDLSHGSAQV [Compound X, tridecapeptide that acts on stem cells]
Phenotype Lin−/Sca-1+ (peripheral blood cells; 50 μg/kg, 1-hour): 0.4% | Phenotype Lin−/Sca-1− (peripheral blood cells; 50 μg/kg, 1-hour): 0.8% | Phenotype Lin−/Sca-1+ (peripheral blood cells; 50 μg/kg, 30-min): 0.5% | Phenotype Lin−/Sca-1− (peripheral blood cells; 50 μg/kg, 30-min): 1.0% | Phenotype Lin−/Sca-1+ (peripheral blood cells; 250 μg/kg, 1-hour): 0.8% | Phenotype Lin−/Sca-1− (peripheral blood cells; 250 μg/kg, 1-hour): 1.1% | Phenotype Lin−/Sca-1+ (peripheral blood cells; 250 μg/kg, 30-min): 0.6% | Phenotype Lin−/Sca-1− (peripheral blood cells; 250 μg/kg, 30-min): 1.1% | Phenotype CD19+ (peripheral blood cells; s.c. 50 μg/kg, 1 hr): 38.3% and 41.0% and 29.6% | Phenotype Gr-1 High (peripheral blood cells; s.c. 50 μg/kg, 1 hr): 26.0% and 27.7% and 29.4% | Phenotype Gr-1 Low (peripheral blood cells; s.c. 50 μg/kg, 1 hr): 3.5% (2×) and 7.0% | Phenotype CD19+ (peripheral blood cells; s.c. 50 μg/kg, 4 hr): 33.9% and 40.9% and 29.1% | Phenotype Gr-1 High (peripheral blood cells; s.c. 50 μg/kg, 4 hr): 25.0% and 16.7% and 29.1% | Phenotype Gr-1 Low (peripheral blood cells; s.c. 50 μg/kg, 4 hr): 6.2% and 7.6% and 5.3% | Phenotype CD19+ (peripheral blood cells; s.c. 250 μg/kg, 1 hr): 14.8% and 4.8% and 14.5% | Phenotype Gr-1 High (peripheral blood cells; s.c. 250 μg/kg, 1 hr): 55.2% and 18.7% and 6.8% | Phenotype Gr-1 Low (peripheral blood cells; s.c. 250 μg/kg, 1 hr): 3.5% and 2.1% and 2.4% | Phenotype CD19+ (peripheral blood cells; s.c. 250 μg/kg, 4 hr): 46.7% and 48.5% and 46.6% | Phenotype Gr-1 High (peripheral blood cells; s.c. 250 μg/kg, 4 hr): 16.1% and 12.9% and 11.7% | Phenotype Gr-1 Low (peripheral blood cells; s.c. 250 μg/kg, 4 hr): 5.1% and 5.5% and 6.6% | mobilization of lineage negative progenitors (peripheral blood cells; s.c. 50 or 250 μg/kg, 30 min and 1 hr): did not have such an effect | increase in number of HSC HPC in blood ([1]; 1 hr after s.c. injection): up to 5 times | doses with mobilizing activity ([1]; doses tested from 5 μg/kg up to 5 mg): 125 to 500 µg/kg | CFU-GEMM, MEAN ([1]; s.c. 250 μg/kg, 1 hour): 3.8 per 100,000 cells | CFU-GM (day 7), MEAN ([1]; s.c. 250 μg/kg, 1 hour): 4 per 100,000 cells | CFU-GEMM [1, 4]: 6 per 100,000 cells and 3 per 100,000 cells (3×) and 4 per 100,000 cells | CFU-GM (day 7) [1, 4]: 3 per 100,000 cells (2×) and 6 per 100,000 cells and 4 per 100,000 cells (2×) | number of white blood cells and CFU-GM in peripheral blood ([1]; s.c. 250 μg/kg, 1 hr): did not change | increase of CFU-GEMM number in peripheral blood ([1]; s.c. 250 μg/kg, 1 hr, vs PBS): 3.8 times | CFU-GM + CFU-GEMM, MEAN ([1]; single s.c. 50 μg/kg, 1 hour): 5 per 100000 cells | CFU-GM + CFU-GEMM ([1]; single s.c. 50 μg/kg, 1 hour, individual dishes): 5 per 100000 cells and 6 per 100000 cells and 4 per 100000 cells and 3 per 100000 cells and 7 per 100000 cells | CFU-GM + CFU-GEMM, MEAN ([1]; single s.c. 50 μg/kg, 4 hour): 0.6 per 100000 cells | CFU-GM + CFU-GEMM ([1]; single s.c. 50 μg/kg, 4 hour, individual dishes): 1 per 100000 cells (3×) and 0 per 100000 cells (2×) | CFU-GM + CFU-GEMM, MEAN ([1]; single s.c. 250 μg/kg, 1 hour): 25 per 100000 cells | CFU-GM + CFU-GEMM ([1]; single s.c. 250 μg/kg, 1 hour, individual dishes): 24 per 100000 cells (2×) and 20 per 100000 cells and 28 per 100000 cells and 29 per 100000 cells | CFU-GM + CFU-GEMM, MEAN ([1]; single s.c. 250 μg/kg, 4 hour): 1.4 per 100000 cells | CFU-GM + CFU-GEMM ([1]; single s.c. 250 μg/kg, 4 hour, individual dishes): 1 per 100000 cells (4×) and 3 per 100000 cells | stem cell number (HSC) in circulation ([1]; within 1 hr after injection, from approximately 100 HSC under homeostatic conditions): 300-400 HSC | Wound healing rate, Average [2]: 5.14% | Wound healing rate ([2]; individual mice, 5 mg/kg): 3.89% and 4.69% and 2.42% and 8.09% and 6.62% | Glucose level in peripheral blood (nonfasting) ([3]; Week 1): 160 mg/dL and 121 mg/dL and 122 mg/dL and 235 mg/dL and 117 mg/dL and 178 mg/dL and 248 mg/dL and 119 mg/dL and 181 mg/dL and 194 mg/dL | Glucose level in peripheral blood (nonfasting) ([3]; Week 2): 481 mg/dL and 377 mg/dL and 177 mg/dL and 472 mg/dL and 273 mg/dL and 452 mg/dL and 500 mg/dL and 189 mg/dL and 502 mg/dL and 430 mg/dL | Glucose level in peripheral blood (nonfasting) ([3]; Week 3): 541 mg/dL (2×) and 447 mg/dL and 271 mg/dL and HI (High/Hi = ≧600 mg/dL, the maximum possible glucometer reading) and 546 mg/dL and 496 mg/dL and 474 mg/dL and 267 mg/dL and 463 mg/dL | Glucose level in peripheral blood (nonfasting) ([3]; Week 4): 398 mg/dL and 416 mg/dL and 206 mg/dL and 599 mg/dL and 440 mg/dL and 458 mg/dL and 591 mg/dL and 257 mg/dL and HI (High/Hi = ≧600 mg/dL, the maximum possible glucometer reading) and 549 mg/dL | Glucose level in peripheral blood (nonfasting) ([3]; Week 5): 481 mg/dL and 443 mg/dL and 256 mg/dL and 527 mg/dL and 525 mg/dL and 582 mg/dL and 588 mg/dL and 467 mg/dL and HI (High/Hi = ≧600 mg/dL, the maximum possible glucometer reading) (2×) | Glucose level in peripheral blood (nonfasting) ([3]; Week 6): 400 mg/dL and 541 mg/dL and 265 mg/dL and 537 mg/dL and 576 mg/dL and HI (High/Hi = ≧600 mg/dL, the maximum possible glucometer reading) (4×) and 457 mg/dL | Glucose level in peripheral blood, group mean ([3]; Week 1): 168 ± 15 mg/dL | Glucose level in peripheral blood, group mean ([3]; Week 2): 385 ± 40 mg/dL | Glucose level in peripheral blood, group mean ([3]; Week 3): 465 ± 36 mg/dL | Glucose level in peripheral blood, group mean ([3]; Week 4): 451 ± 44 mg/dL | Glucose level in peripheral blood, group mean ([3]; Week 5): 506 ± 33 mg/dL | Glucose level in peripheral blood, group mean ([3]; Week 6): 517 ± 35 mg/dL | nonfasting glucose level compared to Saline control ([3]; at all timepoints): decreased glucose level | mice with lower than 200 mg/dL fasting serum glucose ([3]; end of the 5-week study): 2 mice | mice with overnight fasting serum glucose <300 mg/dL ([3]; end of the 5-week study, vehicle 3/10): 7/10
